Test results published in patent publication US10508281B2, “Disruption of ROCK1 gene leads to plants with improved traits” (priority 2014, dated 2019).
Residues, ends and D or L forms follow the SMILES beside them. *: point of attachment. Cbz = O=C(OCc1ccccc1)*

What was measured:
[1] = molecular target: T1, ROCK1 (Arabidopsis thaliana, UniProt Q8LES0); test: Nucleotide-sugar transport assay: uptake of radiolabeled nucleotide sugars into yeast microsomes expressing FLAG-ROCK1; format: biochemical; details: ER/Golgi microsomal vesicles from S. cerevisiae expressing FLAG-ROCK1 vs empty vector control
T1 construct: FLAG (N); made in house; host or cells: Saccharomyces cerevisiae BY4741 (microsomal vesicles)
T1 sequence (Q8LES0 1-325): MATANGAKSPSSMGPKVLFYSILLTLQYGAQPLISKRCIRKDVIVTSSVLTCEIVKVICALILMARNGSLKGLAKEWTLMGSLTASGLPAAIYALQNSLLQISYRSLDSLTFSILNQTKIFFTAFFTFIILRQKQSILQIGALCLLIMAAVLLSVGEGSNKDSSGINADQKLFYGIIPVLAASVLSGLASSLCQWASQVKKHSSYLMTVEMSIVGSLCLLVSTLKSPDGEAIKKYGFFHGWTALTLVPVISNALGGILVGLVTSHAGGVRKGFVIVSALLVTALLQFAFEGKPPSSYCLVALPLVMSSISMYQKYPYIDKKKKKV
Procedure: (B) Measurement of ROCK1-mediated uptake of radiolabeled nucleotide sugars into yeast microsomes expressing FLAG-ROCK1 or empty vector. Means±SEM (n=3; *, P<0.05, t test).
Nucleotide-sugar transport into Saccharomyces cerevisiae (BY4741) transformed with the construct pYEScupFLAGK-ROCK1 or the empty vector control was measured as described by Ashikov et al. (2005): “cultured cells were harvested by centrifugation (5 min at 1,500×g) and washed twice with ice-cold 10 mm NaN3. The weight of wet cells was measured, and cells were resuspended in zymolyase buffer (3 ml/g of cells; 50 mm potassium phosphate, pH 7.5; 1.4 m sorbitol; 10 mm NaN3 and 0.3% β-mercaptoethanol) containing 0.6 mg/ml of zymolyase-100T. The suspension was incubated for 20 min at 30° C. Spheroplasts were collected by centrifugation (5 min at 1,000×g) and resuspended in lysis buffer (4 ml/g of cells; 10 mm Hepes-Tris, pH 7.4; 0.8 m sorbitol; 1 mm EDTA) containing complete EDTA-free protease inhibitor mixture (Roche Applied Science). After homogenization with 10 strokes in a Dounce homogenizer, the lysate was centrifuged (5 min, 1,500×g) to remove unlysed cells and debris. Endoplasmic reticulum- and Golgi-rich fractions were then obtained by centrifugation at 10,000×g for 10 min (endoplasmic reticulum) and 100,000×g for 1 h (Golgi). The 100,000×g pellet was carefully resuspended in lysis buffer (0.8 ml/g of cells), and aliquots of 100 μl were snap-frozen and kept at −80° C. Protein concentrations were determined using the BCA™ kit (Pierce). For transport assay reactions, equal volumes (50 μl of each) of 2 mm radioactive nucleotide sugar (2,000-4,000 dpm/pmol) in assay buffer (10 mm Tris-HCl, pH 7.0; 0.8 m sorbitol; 2 mm MgCl2) and vesicle preparation (equivalent to 75-100 μg of protein) were incubated for 30 s at 30° C. Reactions were stopped by dilution with 1 ml of assay buffer containing 1 μm respective cold nucleotide sugar. The separation of vesicles and nucleotide sugars was achieved by filtration trough nitrocellulose filter (MF™ membrane filters Millipore, Bedford, Mass.). Filters were washed three times with 2 ml of ice-cold assay buffer containing the corresponding cold nucleotide sugar at a concentration of 1 μm, and radioactivity associated with the vesicular fraction was measured by liquid scintillation in a LS 5000CE counter (Beckman Coulter). Golgi vesicles from yeast cells transformed with an empty vector were used to measure endogenous transport.”
To directly test the transport specificity of ROCK1, a FLAG-tagged ROCK1 protein was expressed in Saccharomyces cerevisiae, which has, with the exception of GDP-Man, a low background for most nucleotide sugar transport activities and is commonly used as a heterologous test system for NSTs. […]

[2] = system: ipt3,5,7; test: Restoration of growth of ipt3,5,7 mutant plants by CKX inhibitor application; format: in vivo, Arabidopsis thaliana; details: shoots sprayed with 10 μM INCYDE every 3 days; compared with suppression by rock1-1
Procedure: If not otherwise denoted, Arabidopsis thaliana Columbia-0 was used as the wild type. The T-DNA insertion lines rock1-2 (SALK_001259) and rock1-3 (901C01) were used. The following lines were described previously: 35S:CKX1-11, 35S:CKX2-9, 35S:CKX3-9, 35S:CKX7-GFP-26, ahk2-5, ahk3-7, cre1-2, atipt1, atipt3-2, atipt5-2, atipt7-1, cgl1 C6 (cgl1-2) and ARR5:GUS. Plants were grown in vitro on half-strength Murashige and Skoog (MS) medium containing 10 g/L sucrose, 0.5 g/L MES and 8 g/L phytagel. For analysis of root growth, 12 g/L phytagel and cytokinin or DMSO as solvent control were added to the medium. Plants were grown under long day conditions (16 h light/8 h dark; 21/18° C.) in vitro or in the green house. Shoots of soil grown plants were sprayed with 10 μM INCYDE and 0.01% Silwet L-77 every 3 days starting 3 days after germination. The binary vector constructs were transformed into Arabidopsis plants by Agrobacterium tumefaciens (strain GV3101:pMP90) mediated floral dip method.
To gain information about the specificity of rock1 in suppressing CKX overexpression phenotypes, rock1-1 was introgressed into 35S:CKX2, 35S:CKX3 and 35S:CKX7 plants.

[3] = system: myc-CKX1; test: myc-CKX1 level in seedlings after proteasome inhibitor treatment (immunoblotting and densitometry); format: in vivo, Arabidopsis thaliana; details: seedlings treated with 100 μM MG132
Procedure: FIG. 4. ROCK1 regulates ERQC and CKX protein stability. (A) N-glycosylation status of myc-CKX1 protein in wild-type and rock1 seedlings. Protein extracts were treated with PNGase F or EndoH and the size of myc-CKX1 was compared to mock-treated control by SDS-PAGE and immunoblot with anti-myc antibody. (B) The loss of GnT-I activity in cgl1 mutants has no influence on the shoot phenotype of 35S:CKX1 plants (21 dag). (C) The level of myc-CKX1 is decreased in rock1 compared to wild type. Total protein extracts were analyzed by immunoblot with anti-myc antibody. Coomassie blue staining of Rubisco large subunit (RbcL) was used as loading control. Relative densitometric analysis of the myc-CKX1 signal is shown. […] Protein extracts were prepared from 7-d-old seedlings treated with mock or 100 μM CHX for indicated times and analyzed by immunoblotting. […] Seedlings were treated with 100 μM MG132 and myc-CKX1 analyzed by immunoblotting and densitometry. […] (F) Quantitative real-time PCR analysis of UPR genes in shoots of soil-grown seedlings 9 dag measured by. […]
Proteins were extracted and the concentration determined as described for the CKX activity assay. […] Intensities were normalized to the loading control and calculated relative to wild type samples. […]
To test CKX1 turnover, we analyzed myc-CKX1 levels in the presence of the translation inhibitor cycloheximide (CHX). […]

uptake in vesicles expressing ROCK1, increased in comparison to the control [1] [fold] | Structure (SMILES) | relative transport in ROCK1 microsomes versus empty vector control (in words) [1] | also measured
– | Nc1nc2c(ncn2[C@@H]2O[C@H](COP(=O)(O)OP(=O)(O)O[C@H]3O[C@H](CO)[C@@H](O)[C@H](O)[C@@H]3O)[C@@H](O)[C@H]2O)c(=O)[nH]1 [GDP-Man] | lowered | –
– | CC1OC(OP(=O)(O)OP(=O)(O)OCC2OC(n3cnc4c(=O)[nH]c(N)nc43)C(O)C2O)C(O)C(O)C1O (stereo not shown) [GDP-Fuc] | lowered | –
– | COc1cccc(Nc2nc(Cl)nc3nc[nH]c23)c1 [chemical inhibitor of CKX activity] | – | restoration of ipt3,5,7 growth [2]: comparable restoration of ipt3,5,7 growth
– | CC(C)C[C@@H](C=O)NC(=O)[C@H](CC(C)C)NC(=O)[C@H](CC(C)C)NC(=O)OCc1ccccc1 [MG132] (Cbz-Leu-Leu-Leu-aldehyde) | – | effect on myc-CKX1 levels in rock1 background ([3]; rock1 background): strongly stabilized myc-CKX1 levels; effect on level of myc-CKX1 in wild type ([3]; wild type background): increased the level of myc-CKX1
3 | CC(=O)N[C@H]1[C@@H](OP(=O)(O)OP(=O)(O)OC[C@H]2O[C@@H](n3ccc(=O)[nH]c3=O)[C@H](O)[C@@H]2O)O[C@H](CO)[C@@H](O)[C@@H]1O [UDP-GlcNAc, UDP-N-acetylglucosamine] | – | –
7 | CC(=O)N[C@H]1[C@@H](OP(=O)(O)OP(=O)(O)OC[C@H]2O[C@@H](n3ccc(=O)[nH]c3=O)[C@H](O)[C@@H]2O)O[C@H](CO)[C@H](O)[C@@H]1O [UDP-GalNAc, UDP-N-acetylgalactosamine] | – | –
